Test results taken from publication PMC10794144, “A novel antibiotic class targeting the lipopolysaccharide transporter” (Nature, 2024).

Assays:
CYP2D6 = CYP2D6 (Homo sapiens, UniProt P10635); assay: CYP inhibition; type: in vitro ADME
[1] = test system: Nicotinic receptor, muscle; assay: Off-target screening (CEREP); type: binding, human; conditions: 10 µM, duplicates
Protocol: (§1) Supplementary Table 1 │ Off-target activity screening f or MCP compou nds […]
(§2) The assays given in the table above were conducted at Eurofins CEREP S A (Celle-Lévescault, France) and were run as single point measurements in duplicates in the presence of 10 µ M of the test compound and reported as percent inhibition of the radioligand signal or control enzymatic activity. n.d., not

[2] = test system: Nicotinic receptor, neuronal; assay: Off-target screening (CEREP); type: binding, human; conditions: 10 µM, duplicates
Protocol: as §1, §2

S. aureus ATCC 29213 = assay: organism not typed; conditions: for RO7223280 MIC 100%: S. aureus ATCC 29213, read at 100%
Protocol: MIC determinations were performed using the broth microdilution method and in line with CLSI guidelines M07 and M100 (refs. [37],[38]). Bacterial inocula were prepared by diluting a 0.5 McFarland suspension in CAMHB or lysogeny broth (LB) specifically for A. baylyi isolates. […] MIC values of all of the tested antibiotics were read as the lowest compound concentration inhibiting bacterial growth by naked eye or beyond which the OD600 ceased to decrease.

CYP2C9 = CYP2C9 (Homo sapiens, UniProt P11712); assay: CYP inhibition; type: in vitro ADME
[3] = test system: GSK-3A (second line so named); assay: Off-target screening (CEREP); type: biochemical, human; conditions: 10 µM, duplicates
Protocol: as §1, §2

[4] = Mouse pharmacokinetics study, i.v. bolus; type: in vivo; conditions: male CD1 mice, 1 mg/kg IV
Protocol: Three male CD1 mice were administered with compound formulation (0.5 mg ml^−1 in 0.9% aqueous sodium chloride solution) as an intravenous bolus dose of 1 mg per kg. Blood was sampled at 0.08, 0.25, 0.5, 1, 2, 4, 7 and 24 h after administration and the blood collecting tubes were centrifuged for 5 min at 5,200g at room temperature to isolate the plasma supernatant. The concentrations of compound in the plasma were analysed using a liquid chromatography–mass spectrometry method with a calibration range of 5–10,000 ng ml^−1. The pharmacokinetic parameters were derived from the individual concentration data and were estimated by non-compartmental analysis.

ZAP70 kinase = target: T1, ZAP70 kinase (Homo sapiens, UniProt P43403); assay: Off-target screening (CEREP); type: biochemical; conditions: read-out: percent inhibition
T1 construct: purchased Eurofins CEREP SA
T1 sequence (P43403 1-619): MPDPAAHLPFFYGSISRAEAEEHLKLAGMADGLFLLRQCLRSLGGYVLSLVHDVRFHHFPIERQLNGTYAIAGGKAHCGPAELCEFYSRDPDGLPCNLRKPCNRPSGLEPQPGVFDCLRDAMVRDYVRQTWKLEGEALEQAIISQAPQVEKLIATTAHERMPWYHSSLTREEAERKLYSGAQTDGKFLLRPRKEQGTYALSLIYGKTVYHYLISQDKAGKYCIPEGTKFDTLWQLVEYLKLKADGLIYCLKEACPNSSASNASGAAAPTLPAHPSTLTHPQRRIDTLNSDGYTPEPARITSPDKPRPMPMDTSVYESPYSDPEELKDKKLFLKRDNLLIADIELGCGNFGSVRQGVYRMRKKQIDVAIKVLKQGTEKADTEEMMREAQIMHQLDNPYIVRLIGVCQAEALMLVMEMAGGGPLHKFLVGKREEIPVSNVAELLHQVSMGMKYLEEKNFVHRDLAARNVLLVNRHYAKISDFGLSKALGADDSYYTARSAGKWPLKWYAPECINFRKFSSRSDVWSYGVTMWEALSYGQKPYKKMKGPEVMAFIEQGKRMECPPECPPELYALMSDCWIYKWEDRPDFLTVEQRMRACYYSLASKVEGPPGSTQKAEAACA
Protocol: as §1, §2

[5] = target: T2, Angiotensin converting enzyme (Homo sapiens, UniProt P12821); assay: Off-target screening (CEREP); type: biochemical; conditions: read-out: percent inhibition
T2 construct: purchased Eurofins CEREP SA
T2 sequence (P12821 30-1306): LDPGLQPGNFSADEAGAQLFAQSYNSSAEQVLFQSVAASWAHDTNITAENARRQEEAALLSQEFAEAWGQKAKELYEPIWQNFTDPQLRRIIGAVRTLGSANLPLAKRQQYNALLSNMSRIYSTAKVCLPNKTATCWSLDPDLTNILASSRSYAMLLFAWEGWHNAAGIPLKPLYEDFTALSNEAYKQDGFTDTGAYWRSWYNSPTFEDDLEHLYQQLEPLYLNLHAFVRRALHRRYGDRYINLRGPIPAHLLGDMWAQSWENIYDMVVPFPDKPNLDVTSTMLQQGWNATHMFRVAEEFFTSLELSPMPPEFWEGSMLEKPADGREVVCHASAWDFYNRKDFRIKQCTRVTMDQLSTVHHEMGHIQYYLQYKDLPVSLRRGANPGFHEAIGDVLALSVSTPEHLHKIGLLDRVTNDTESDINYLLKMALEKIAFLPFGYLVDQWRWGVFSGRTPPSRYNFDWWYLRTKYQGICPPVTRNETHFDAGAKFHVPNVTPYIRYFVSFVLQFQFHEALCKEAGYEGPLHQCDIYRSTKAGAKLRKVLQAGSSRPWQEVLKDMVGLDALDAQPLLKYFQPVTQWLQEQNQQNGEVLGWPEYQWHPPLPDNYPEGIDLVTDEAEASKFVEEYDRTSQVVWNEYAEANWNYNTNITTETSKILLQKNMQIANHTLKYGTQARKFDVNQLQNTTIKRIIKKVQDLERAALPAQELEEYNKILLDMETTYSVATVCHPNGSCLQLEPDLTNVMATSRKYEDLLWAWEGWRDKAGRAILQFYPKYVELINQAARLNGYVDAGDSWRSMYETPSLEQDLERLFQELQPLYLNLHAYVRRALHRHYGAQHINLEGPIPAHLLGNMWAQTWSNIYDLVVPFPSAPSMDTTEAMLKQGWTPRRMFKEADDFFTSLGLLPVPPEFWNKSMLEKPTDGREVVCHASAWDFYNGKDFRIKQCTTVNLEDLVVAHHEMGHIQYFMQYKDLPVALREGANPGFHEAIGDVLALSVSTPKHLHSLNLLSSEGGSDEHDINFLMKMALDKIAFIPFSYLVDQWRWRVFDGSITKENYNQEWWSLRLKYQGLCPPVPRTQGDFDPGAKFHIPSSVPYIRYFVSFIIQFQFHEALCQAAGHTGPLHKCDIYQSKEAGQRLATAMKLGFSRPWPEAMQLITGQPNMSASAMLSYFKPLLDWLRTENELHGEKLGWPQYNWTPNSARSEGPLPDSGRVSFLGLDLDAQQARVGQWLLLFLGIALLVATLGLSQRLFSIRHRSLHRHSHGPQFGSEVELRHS
Protocol: as §1, §2

GSK-3A = target: T3, GSK-3A (Homo sapiens, UniProt P49840); assay: Off-target screening (CEREP); type: biochemical; conditions: read-out: percent inhibition
T3 construct: purchased Eurofins CEREP SA
T3 sequence (P49840 whole entry): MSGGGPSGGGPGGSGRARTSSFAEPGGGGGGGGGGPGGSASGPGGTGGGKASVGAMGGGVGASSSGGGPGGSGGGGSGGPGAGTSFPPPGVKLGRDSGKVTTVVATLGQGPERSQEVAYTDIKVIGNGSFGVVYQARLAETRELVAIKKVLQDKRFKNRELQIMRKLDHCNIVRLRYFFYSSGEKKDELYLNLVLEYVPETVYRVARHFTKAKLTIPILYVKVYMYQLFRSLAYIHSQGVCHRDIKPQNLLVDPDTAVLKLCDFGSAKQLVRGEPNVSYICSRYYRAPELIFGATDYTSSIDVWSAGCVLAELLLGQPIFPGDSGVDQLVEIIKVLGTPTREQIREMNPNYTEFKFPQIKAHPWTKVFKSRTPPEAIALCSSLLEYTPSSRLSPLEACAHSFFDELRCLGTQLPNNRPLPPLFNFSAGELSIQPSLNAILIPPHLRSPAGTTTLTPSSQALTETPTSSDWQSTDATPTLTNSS
Protocol: as §1, §2

Cyclooxygenase 2 = target: T4, Cyclooxygenase 2 (Homo sapiens, UniProt P35354); assay: Off-target screening (CEREP); type: biochemical; conditions: read-out: percent inhibition
T4 construct: purchased Eurofins CEREP SA
T4 sequence (P35354 18-604): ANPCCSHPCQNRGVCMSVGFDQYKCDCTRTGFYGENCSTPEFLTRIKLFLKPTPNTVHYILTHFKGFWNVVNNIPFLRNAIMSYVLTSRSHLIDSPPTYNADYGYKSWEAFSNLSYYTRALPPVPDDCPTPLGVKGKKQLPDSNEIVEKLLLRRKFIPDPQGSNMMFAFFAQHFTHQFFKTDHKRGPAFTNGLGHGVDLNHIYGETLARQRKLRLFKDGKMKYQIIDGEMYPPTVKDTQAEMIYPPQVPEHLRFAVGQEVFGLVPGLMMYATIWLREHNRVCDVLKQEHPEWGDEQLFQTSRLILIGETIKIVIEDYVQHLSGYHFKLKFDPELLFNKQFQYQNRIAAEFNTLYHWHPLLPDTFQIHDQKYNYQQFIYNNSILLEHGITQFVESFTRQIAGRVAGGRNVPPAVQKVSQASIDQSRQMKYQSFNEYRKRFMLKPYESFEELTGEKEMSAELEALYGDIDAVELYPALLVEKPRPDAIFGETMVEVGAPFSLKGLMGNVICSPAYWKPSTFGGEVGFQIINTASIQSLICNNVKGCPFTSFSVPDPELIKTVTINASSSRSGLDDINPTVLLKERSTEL
Protocol: as §1, §2

Matrix metalloprotease-9 = target: T5, Matrix metalloprotease-9 (Homo sapiens, UniProt P14780); assay: Off-target screening (CEREP); type: biochemical; conditions: read-out: percent inhibition
T5 construct: purchased Eurofins CEREP SA
T5 sequence (P14780 94-707): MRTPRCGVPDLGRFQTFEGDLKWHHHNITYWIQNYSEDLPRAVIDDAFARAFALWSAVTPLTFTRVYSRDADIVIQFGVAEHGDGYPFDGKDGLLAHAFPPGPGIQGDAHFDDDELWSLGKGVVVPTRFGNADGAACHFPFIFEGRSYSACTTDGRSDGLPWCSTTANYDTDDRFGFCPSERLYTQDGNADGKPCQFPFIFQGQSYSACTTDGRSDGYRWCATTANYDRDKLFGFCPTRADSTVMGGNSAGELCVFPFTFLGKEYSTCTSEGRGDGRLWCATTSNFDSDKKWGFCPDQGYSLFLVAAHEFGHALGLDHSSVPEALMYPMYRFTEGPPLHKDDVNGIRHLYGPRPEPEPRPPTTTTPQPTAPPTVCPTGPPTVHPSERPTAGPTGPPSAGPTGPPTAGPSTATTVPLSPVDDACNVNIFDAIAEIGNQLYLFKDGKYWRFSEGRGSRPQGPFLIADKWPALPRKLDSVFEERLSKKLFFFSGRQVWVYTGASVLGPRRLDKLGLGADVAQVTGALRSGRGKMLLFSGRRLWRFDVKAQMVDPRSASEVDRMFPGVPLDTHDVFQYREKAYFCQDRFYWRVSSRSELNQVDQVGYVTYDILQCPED
Protocol: as §1, §2

HIV-1 protease = assay: Off-target screening (CEREP); type: biochemical; conditions: 10 µM, duplicates
Protocol: as §1, §2

Acetylcholinesterase = target: T6, Acetylcholinesterase (Homo sapiens, UniProt P22303); assay: Off-target screening (CEREP); type: biochemical; conditions: read-out: percent inhibition
T6 construct: purchased Eurofins CEREP SA
T6 sequence (P22303 32-614): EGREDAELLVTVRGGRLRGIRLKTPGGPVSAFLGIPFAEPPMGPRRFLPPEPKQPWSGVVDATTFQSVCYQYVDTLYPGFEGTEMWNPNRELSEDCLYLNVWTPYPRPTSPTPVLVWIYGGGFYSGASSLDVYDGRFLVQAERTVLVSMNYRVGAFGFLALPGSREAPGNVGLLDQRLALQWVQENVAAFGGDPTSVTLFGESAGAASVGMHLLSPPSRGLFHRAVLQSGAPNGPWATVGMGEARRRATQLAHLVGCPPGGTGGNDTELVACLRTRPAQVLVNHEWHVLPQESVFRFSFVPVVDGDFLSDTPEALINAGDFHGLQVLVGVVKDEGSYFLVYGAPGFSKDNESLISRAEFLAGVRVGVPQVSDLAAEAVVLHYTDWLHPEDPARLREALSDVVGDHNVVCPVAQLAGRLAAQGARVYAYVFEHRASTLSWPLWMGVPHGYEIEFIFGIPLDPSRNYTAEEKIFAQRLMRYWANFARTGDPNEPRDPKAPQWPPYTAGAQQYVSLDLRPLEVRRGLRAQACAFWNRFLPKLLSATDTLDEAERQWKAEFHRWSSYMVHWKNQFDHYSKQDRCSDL
Protocol: as §1, §2

Phosphodiesterase 4D2 = target: T7, Phosphodiesterase 4D2 (Homo sapiens, UniProt Q08499); assay: Off-target screening (CEREP); type: biochemical; conditions: read-out: percent inhibition
T7 construct: purchased Eurofins CEREP SA
Protocol: as §1, §2

Xanthine oxidase = target: T8, Xanthine oxidase (Bos taurus, UniProt P80457); assay: Off-target screening (CEREP); type: biochemical, bovine; conditions: read-out: percent inhibition
T8 construct: purchased Eurofins CEREP SA
T8 sequence (P80457 whole entry): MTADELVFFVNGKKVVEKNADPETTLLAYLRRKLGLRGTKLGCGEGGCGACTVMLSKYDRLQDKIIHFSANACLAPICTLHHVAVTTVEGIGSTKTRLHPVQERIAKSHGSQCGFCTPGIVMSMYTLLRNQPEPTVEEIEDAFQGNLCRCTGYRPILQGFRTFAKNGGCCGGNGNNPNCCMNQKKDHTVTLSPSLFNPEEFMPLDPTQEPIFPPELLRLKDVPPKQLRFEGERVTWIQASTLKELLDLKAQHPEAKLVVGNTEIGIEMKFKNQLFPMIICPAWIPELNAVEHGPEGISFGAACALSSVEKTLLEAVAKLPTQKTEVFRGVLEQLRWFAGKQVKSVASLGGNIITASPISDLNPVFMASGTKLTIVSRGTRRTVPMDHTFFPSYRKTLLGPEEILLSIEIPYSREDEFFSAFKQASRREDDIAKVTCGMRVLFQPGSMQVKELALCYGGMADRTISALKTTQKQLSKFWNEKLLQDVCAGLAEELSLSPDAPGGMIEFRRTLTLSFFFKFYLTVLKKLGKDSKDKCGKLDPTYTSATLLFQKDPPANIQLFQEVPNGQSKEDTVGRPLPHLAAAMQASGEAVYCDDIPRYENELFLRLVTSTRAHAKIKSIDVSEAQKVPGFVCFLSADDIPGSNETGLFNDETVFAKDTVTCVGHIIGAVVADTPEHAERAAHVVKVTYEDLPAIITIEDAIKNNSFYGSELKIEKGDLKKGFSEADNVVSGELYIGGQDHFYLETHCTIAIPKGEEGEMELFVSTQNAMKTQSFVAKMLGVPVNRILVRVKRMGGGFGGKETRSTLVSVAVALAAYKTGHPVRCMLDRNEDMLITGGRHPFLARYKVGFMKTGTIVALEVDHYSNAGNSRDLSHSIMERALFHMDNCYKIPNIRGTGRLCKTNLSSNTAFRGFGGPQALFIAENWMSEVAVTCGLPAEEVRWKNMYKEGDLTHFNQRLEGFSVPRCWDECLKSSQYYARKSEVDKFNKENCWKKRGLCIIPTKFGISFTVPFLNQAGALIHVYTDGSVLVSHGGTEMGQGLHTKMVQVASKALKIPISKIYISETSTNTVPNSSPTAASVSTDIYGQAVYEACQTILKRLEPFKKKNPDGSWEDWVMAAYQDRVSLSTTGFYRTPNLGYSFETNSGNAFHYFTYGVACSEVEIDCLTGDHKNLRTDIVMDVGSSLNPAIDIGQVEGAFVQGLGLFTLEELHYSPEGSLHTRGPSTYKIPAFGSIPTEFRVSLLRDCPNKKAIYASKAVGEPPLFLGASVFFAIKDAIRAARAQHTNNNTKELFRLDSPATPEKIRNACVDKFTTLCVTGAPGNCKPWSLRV
Protocol: as §1, §2

Chain of CYP2D6 (P10635 whole entry): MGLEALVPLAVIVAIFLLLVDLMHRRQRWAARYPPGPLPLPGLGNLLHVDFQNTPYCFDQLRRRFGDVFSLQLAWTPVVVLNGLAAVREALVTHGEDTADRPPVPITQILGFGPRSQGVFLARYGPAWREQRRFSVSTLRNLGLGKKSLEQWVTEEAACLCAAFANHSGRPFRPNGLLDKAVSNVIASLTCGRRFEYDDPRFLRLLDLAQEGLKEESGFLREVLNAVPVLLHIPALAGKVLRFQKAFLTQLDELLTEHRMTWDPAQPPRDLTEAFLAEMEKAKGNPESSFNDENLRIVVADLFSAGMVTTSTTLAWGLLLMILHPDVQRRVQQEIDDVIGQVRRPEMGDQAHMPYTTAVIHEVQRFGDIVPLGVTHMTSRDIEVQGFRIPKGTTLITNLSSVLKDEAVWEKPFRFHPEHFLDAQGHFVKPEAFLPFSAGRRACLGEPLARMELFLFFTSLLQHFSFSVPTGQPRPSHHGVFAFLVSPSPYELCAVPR

In the case of `CN1C(=O)[C@H](CCCCN)NC(=O)[C@H](CCCN)NCc2cccnc2Sc2cccc(-c3ccc(C(=O)O)cc3)c2CNC(=O)[C@@H]1Cc1c[nH]c2ccccc12` [zosurabalpin], the “CYP inh. (2D6)” value (CYP2D6) is reported as >50 (3A4) >50 (2C9) >50 (2D6) μM, the percent inhibition [1] is reported as -16% and the percent inhibition [2] is reported as -11%. The “RO7223280 MIC 100%” value (S. aureus ATCC 29213; Study LGC296813) was >64 µg/mL, the “RO7223280 MIC 100%” value (S. aureus ATCC 29213; Study LGC299544) was >64 µg/mL and the “RO7223280 MIC 100%” value (S. aureus ATCC 29213; Study LGC308175) was >64 µg/mL. The MIC (S. aureus ATCC 29213; Staphylococcus aureus, ATCC29213) was > 64 µg/mL, the “CYP inh. (2C9)” value (CYP2C9) was >50 (3A4) >50 (2C9) >50 (2D6) μM and the Ames (Ames) was “Negative”. For the same compound, the percent inhibition [3] was -3%, the Vss ([4]; n = 3) was 0.7 L/kg and the “t1/2, terminal plasma half-life” value ([4]; n = 3) was 18 min. For the same compound, the Cl ([4]; n = 3, LC-MS, non-compartmental) was 51 mL/min/kg, the inhibition at 10 µM (ZAP70 kinase) was 1% and the inhibition at 10 µM [5] was -16%. The inhibition at 10 µM (GSK-3A) was -1%, the inhibition at 10 µM (Cyclooxygenase 2) was -7% and the inhibition at 10 µM (Matrix metalloprotease-9) was 10%. For the same compound, the percent inhibition (HIV-1 protease) was 16%, the inhibition at 10 µM (Acetylcholinesterase) was 13% and the inhibition at 10 µM (Phosphodiesterase 4D2) was 12%. The inhibition at 10 µM (Xanthine oxidase) was 5%.
